Positions of bridges follow the written chain, without caps; N, C: chain ends. Non-standard residues stand in square brackets, D forms with d. Residues, ends and D or L forms follow the SMILES beside them. Bip(4'-COOH) = N[C@@H](Cc1ccc(-c2ccc(C(=O)O)cc2)cc1)C(=O)O; Bip(4'-NHAc) = CC(=O)Nc1ccc(-c2ccc(C[C@H](N)C(=O)O)cc2)cc1; Phe(3-CONH2) = NC(=O)c1cccc(C[C@H](N)C(=O)O)c1; Bip = N[C@@H](Cc1ccc(-c2ccccc2)cc1)C(=O)O; 2Pal = N[C@@H](Cc1ccccn1)C(=O)O; Cha = N[C@@H](CC1CCCCC1)C(=O)O; Chg = N[C@H](C(=O)O)C1CCCCC1; Tle = CC(C)(C)[C@H](N)C(=O)O; Aze = O=C(O)[C@@H]1CCN1; Sar = CNCC(=O)O

Chain of TNFα (P01375 77-233 limits assumed): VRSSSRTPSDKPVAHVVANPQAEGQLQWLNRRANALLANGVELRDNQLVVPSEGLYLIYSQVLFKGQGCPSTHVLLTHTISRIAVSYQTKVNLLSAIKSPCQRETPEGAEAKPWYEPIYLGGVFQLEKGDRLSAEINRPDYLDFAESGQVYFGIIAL

This assay has as its target TNFα (Homo sapiens, UniProt P01375). Briefly: TNF-Induced HEK-Blue Assay. Type of assay: cell-based. Conditions: HEK-Blue-CD40L cells, NF-kB-driven secreted alkaline phosphatase reporter; TNFα 0.5 ng/ml; 18 h; read-out: TNF induced HEK-Blue assay IC50 value.
What is called IC50 is the concentration needed to halve the response being measured. On to `CC[C@H](C)[C@@H]1NC(=O)[C@@H](CCCNC(=N)N)NC(=O)[C@H](CC(=O)O)NC(=O)[C@H](Cc2ccccn2)NC(=O)CN(C)C(=O)[C@H](Cc2ccc(-c3ccc(NC(C)=O)cc3)cc2)NC(=O)[C@H](Cc2ccc(-c3ccccc3)cc2)NC(=O)[C@H](C(C)(C)C)NC(=O)CSC[C@@H](C(=O)NCC(N)=O)NC(=O)[C@H](CC(C)C)NC(=O)[C@H](Cc2cccc(C(N)=O)c2)NC(=O)[C@H](C(C)C)NC(=O)[C@@H]2CCCN2C1=O` [Example 262] ({CH2CO}-[Tle][Bip][Bip(4'-NHAc)][Sar][2Pal]D[dR]IPV[Phe(3-CONH2)]LCG-NH2; thioether N-13), for which the 50% inhibitory concentration (IC50) fell in the range of 50 to 200 nM. With `CC(=O)Nc1ccc(-c2ccc(C[C@@H]3NC(=O)[C@H](Cc4ccc(-c5ccccc5)cc4)NC(=O)[C@H](C(C)(C)C)NC(=O)CSC[C@@H](C(=O)NCC(N)=O)NC(=O)[C@H](CC(C)C)NC(=O)[C@H](Cc4ccccc4)NC(=O)[C@H](C(C)C)NC(=O)[C@@H]4CCCN4C(=O)[C@H](C(C)C)NC(=O)[C@@H](CCCNC(=N)N)NC(=O)[C@H](CC(=O)O)NC(=O)[C@H](Cc4ccc(O)cc4)NC(=O)CN(C)C3=O)cc2)cc1` [Example 263] ({CH2CO}-[Tle][Bip][Bip(4'-NHAc)][Sar]YD[dR]VPVFLCG-NH2; thioether N-13) the figure was 50 to 200 nM; with `CC[C@H](C)[C@@H]1NC(=O)[C@@H](CCCNC(=N)N)NC(=O)[C@H](CC(=O)O)NC(=O)[C@H](Cc2ccc(O)cc2)NC(=O)CN(C)C(=O)[C@H](Cc2ccc(-c3ccc(NC(C)=O)cc3)cc2)NC(=O)[C@H](Cc2ccc(-c3ccccc3)cc2)NC(=O)[C@H](C(C)(C)C)NC(=O)CSC[C@@H](C(=O)NCC(N)=O)NC(=O)[C@H](CC(C)C)NC(=O)[C@H](Cc2ccccc2)NC(=O)[C@H](C(C)C)NC(=O)[C@@H]2CCCN2C1=O` [Example 264] ({CH2CO}-[Tle][Bip][Bip(4'-NHAc)][Sar]YD[dR]IPVFLCG-NH2; thioether N-13), 50 to 200 nM; with `CC(=O)Nc1ccc(-c2ccc(C[C@@H]3NC(=O)[C@H](Cc4ccc(-c5ccc(C(=O)O)cc5)cc4)NC(=O)[C@H](C(C)(C)C)NC(=O)CSC[C@@H](C(=O)NCC(N)=O)NC(=O)[C@H](CC(C)C)NC(=O)[C@H](Cc4ccc(O)cc4)NC(=O)[C@H](C(C)C)NC(=O)[C@@H]4CCCN4C(=O)[C@H](C(C)C)NC(=O)[C@@H](CCCNC(=N)N)NC(=O)[C@H](CC(=O)O)NC(=O)[C@@H]4CCCN4C(=O)CN(C)C3=O)cc2)cc1` [Example 265] ({CH2CO}-[Tle][Bip(4'-COOH)][Bip(4'-NHAc)][Sar]PD[dR]VPVYLCG-NH2; thioether N-13), 50 to 200 nM. As for `CC(=O)Nc1ccc(-c2ccc(C[C@@H]3NC(=O)[C@H](Cc4ccc(-c5ccc(C(=O)O)cc5)cc4)NC(=O)[C@H](C(C)(C)C)NC(=O)CSC[C@@H](C(=O)NCC(N)=O)NC(=O)[C@H](CC(C)C)NC(=O)[C@H](Cc4ccc(O)cc4)NC(=O)[C@H](C(C)C)NC(=O)[C@@H]4CCN4C(=O)[C@H](C(C)C)NC(=O)[C@@H](CCCNC(=N)N)NC(=O)[C@H](CC(=O)O)NC(=O)[C@@H]4CCCN4C(=O)CN(C)C3=O)cc2)cc1` [Example 266] ({CH2CO}-[Tle][Bip(4'-COOH)][Bip(4'-NHAc)][Sar]PD[dR]V[Aze]VYLCG-NH2; thioether N-13), the figure is 50 to 200 nM; as for `CC[C@H](C)[C@@H]1NC(=O)[C@@H](CCCNC(=N)N)NC(=O)[C@H](CC(=O)O)NC(=O)[C@@H]2CCCN2C(=O)CN(C)C(=O)[C@H](Cc2ccc(-c3ccc(NC(C)=O)cc3)cc2)NC(=O)[C@H](Cc2ccc(-c3ccccc3)cc2)NC(=O)[C@H](C(C)(C)C)NC(=O)CSC[C@@H](C(=O)NCC(N)=O)NC(=O)[C@H](CC(C)C)NC(=O)[C@H](Cc2ccc(O)cc2)NC(=O)[C@H](C(C)C)NC(=O)[C@@H]2CCCN2C1=O` [Example 267] ({CH2CO}-[Tle][Bip][Bip(4'-NHAc)][Sar]PD[dR]IPVYLCG-NH2; thioether N-13), 50 to 200 nM; as for `CC[C@H](C)[C@@H]1NC(=O)[C@@H](CCCNC(=N)N)NC(=O)[C@H](CC(=O)O)NC(=O)[C@H](Cc2ccccc2)NC(=O)CN(C)C(=O)[C@H](Cc2ccc(-c3ccc(NC(C)=O)cc3)cc2)NC(=O)[C@H](Cc2ccc(-c3ccc(C(=O)O)cc3)cc2)NC(=O)[C@H](C(C)(C)C)NC(=O)CSC[C@@H](C(=O)NCC(N)=O)NC(=O)[C@H](CC(C)C)NC(=O)[C@H](CCCNC(=N)N)NC(=O)[C@H](C2CCCCC2)NC(=O)[C@@H]2CCCN2C1=O` [Example 268] ({CH2CO}-[Tle][Bip(4'-COOH)][Bip(4'-NHAc)][Sar]FD[dR]IP[Chg]RLCG-NH2; thioether N-13), less than 50 nM.

Regarding `CC[C@H](C)[C@@H]1NC(=O)[C@@H](CCCNC(=N)N)NC(=O)[C@H](CC(=O)O)NC(=O)[C@@H]2CCCN2C(=O)CN(C)C(=O)[C@H](Cc2ccc(-c3ccc(NC(C)=O)cc3)cc2)NC(=O)[C@H](Cc2ccc(-c3ccc(C(=O)O)cc3)cc2)NC(=O)[C@H](C(C)(C)C)NC(=O)CSC[C@@H](C(=O)NCC(N)=O)NC(=O)[C@H](CC(C)C)NC(=O)[C@H](Cc2ccc(O)cc2)NC(=O)[C@H](C(C)C)NC(=O)[C@@H]2CCCN2C1=O` [Example 269] ({CH2CO}-[Tle][Bip(4'-COOH)][Bip(4'-NHAc)][Sar]PD[dR]IPVYLCG-NH2; thioether N-13), the IC50 is 50 to 200 nM. On to `CC[C@H](C)[C@@H]1NC(=O)[C@@H](CCCNC(=N)N)NC(=O)[C@H](CC(=O)O)NC(=O)[C@@H]2CCCN2C(=O)CN(C)C(=O)[C@H](Cc2ccc(-c3ccc(NC(C)=O)cc3)cc2)NC(=O)[C@H](Cc2ccc(-c3ccc(C(=O)O)cc3)cc2)NC(=O)[C@H](C(C)(C)C)NC(=O)CSC[C@@H](C(=O)NCC(N)=O)NC(=O)[C@H](CC(C)C)NC(=O)[C@H](Cc2ccc(O)cc2)NC(=O)[C@H](C2CCCCC2)NC(=O)[C@@H]2CCCN2C1=O` [Example 270] ({CH2CO}-[Tle][Bip(4'-COOH)][Bip(4'-NHAc)][Sar]PD[dR]IP[Chg]YLCG-NH2; thioether N-13), for which the IC50 was 50 to 200 nM.

Turning to `CC(=O)Nc1ccc(-c2ccc(C[C@@H]3NC(=O)[C@H](Cc4ccc(-c5ccc(C(=O)O)cc5)cc4)NC(=O)[C@H](CC4CCCCC4)NC(=O)CSC[C@@H](C(=O)NCC(N)=O)NC(=O)[C@H](CC(C)C)NC(=O)[C@H](Cc4cnc[nH]4)NC(=O)[C@H](C(C)C)NC(=O)[C@@H]4CCN4C(=O)[C@H](C(C)C)NC(=O)[C@@H](CCCNC(=N)N)NC(=O)[C@H](CC(=O)O)NC(=O)[C@H](Cc4ccc(O)cc4)NC(=O)CN(C)C3=O)cc2)cc1` [Example 271] ({CH2CO}-[Cha][Bip(4'-COOH)][Bip(4'-NHAc)][Sar]YD[dR]V[Aze]VHLCG-NH2; thioether N-13), the IC50 lay in the range of 50 to 200 nM. With `CC(=O)Nc1ccc(-c2ccc(C[C@@H]3NC(=O)[C@H](Cc4ccc(-c5ccc(C(=O)O)cc5)cc4)NC(=O)[C@H](CC4CCCCC4)NC(=O)CSC[C@@H](C(=O)NCC(N)=O)NC(=O)[C@H](CC(C)C)NC(=O)[C@H](Cc4cnc[nH]4)NC(=O)[C@H](C4CCCCC4)NC(=O)[C@@H]4CCN4C(=O)[C@H](C(C)C)NC(=O)[C@@H](CCCNC(=N)N)NC(=O)[C@H](CC(=O)O)NC(=O)[C@H](Cc4cnc[nH]4)NC(=O)CN(C)C3=O)cc2)cc1` [Example 272] ({CH2CO}-[Cha][Bip(4'-COOH)][Bip(4'-NHAc)][Sar]HD[dR]V[Aze][Chg]HLCG-NH2; thioether N-13) the figure was 50 to 200 nM.

The values are drawn from patent publication US20250145665A1, “MACROCYCLIC PEPTIDES USEFUL AS MODULATORS OF TNF ALPHA” (Bristol-Myers Squibb Company, priority 2023, published 2025).
